According to US20180071317A1, “USE OF AGENTS THAT ALTER THE PERITUMORAL ENVIRONMENT FOR THE TREATMENT OF CANCER” (SERVICIO ANDALUZ DE SALUD, priority 2011, published 2018):

Assays:
[1] = tested on: fibroblasts (PHF) co-cultured with tumor cells of human endometrial carcinoma (AN3-CA); assay: Marker expression (IHC) in PHF co-cultured with AN3-CA tumor cells; format: cell-based; details: co-culture with AN3-CA; SP 1 μM + antagonist 1 μM; 48 h;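 note: cultured in fresh healthy-donor blood plasma with added antibiotic-antimycotic, run in six replicates, values give percent of fibroblasts positive for each marker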
Method: (§1) All cultures were maintained 48 hours, following which the same cells were included in paraffin blocks for subsequent analysis of the expression of different markers by immunohistochemistry (see Example 1). […] All experiments were carried out sixfold. Analyzed markers in fibroblast cells (stromal cells) were: TGF-α, TGF-β1, TGF-β2, TGF-β3, SPARC, MMP-3, MMP-7, MMP-9, MMP-11, MMP-13 and MMP-14.

[2] = tested on: human primary fibroblasts (PHF); assay: Marker expression (immunohistochemistry) in human primary fibroblasts with SP alone or with NK1 antagonists; format: cell-based; details: SP 1 μM + antagonist 1 μM; 48 h;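 note: primary human dermal fibroblasts, immunostained with rabbit polyclonal antibodies against each marker, value is percentage of stained cells among all cells counted in 20 fields at 400× per section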
Method: These PHF were obtained and purified from samples obtained from the dermis of the skin of healthy volunteers as described in De Bari et al (De Bari et al. 2001). Briefly, small pieces of skin dermis were digested in a solution of hyaluronidase (Sigma-Aldrich, USA) at a concentration of 1 mg/ml for 15 minutes at 37° C. and then treated with 6 mg/ml collagenase type IV (Invitrogen) for 2 hours at 37° C. Then, the cells were washed, resuspended in DMEM culture medium with high glucose (Dulbecco's Modified Eagle's Medium, Invitrogen) supplemented with 1% antibiotic-antimycotic (Invitrogen) and 1% pyruvate Sodium (Invitrogen), and seeded in culture dishes at a concentration of 10,000 cells per square centimeter. When the cells reached confluence, adherent cells were detached using 0.5% sterile trypsin (Invitrogen) and used between passages 3 and 9. For tests shown below, the PHF were plated in 24-well plates at a concentration of 25,000 cells per well.
After 48 hours of culture, cells were harvested and paraffin cell-blocks for immunohistochemical analysis were constructed, as previously explained in Example 1.
In immunohistochemical assays the expression of the following markers were studied: TGFα (SAB4502953), TGF1 (SAB4502954), TGFβ2 (SAB4502956), TGFβ3 (SAB4502957), SPARC (HPA002989), MMP-3 (HPA007875) MMP-7 (SAB4501894), MMP-9 (SAB4501896), MMP-11 (SAB4501898), MMP-13 (SAB4501900) and MMP-14 (SAB4501901) using specific antibodies against them. All antibodies used were rabbit polyclonal antibodies obtained from Sigma-Aldrich and were used at a concentration of 1/1000. All experiments were carried out sixfold.
On each of the six sections cell counts were performed in 20 high power fields (400×) through an Olympus microscope (model CX31) to assess the immunostaining. On each of the fields total cell number and number of cells displaying immunostaining were counted, being then the percentage of cells displaying said immunostaining.

[3] = tested on: fibroblasts (PHF) co-cultured with human melanoma tumor cells (MEL-HO1); assay: Marker expression (IHC) in PHF co-cultured with MEL-HO1 tumor cells; format: cell-based; details: PHF co-cultured with MEL-HO1 + SP + NK1 antagonist;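 note: values are the percentage of fibroblasts positive for each marker, with cultures grown in fresh healthy-donor blood plasma and each experiment run six times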
Method: as §1

[4] = tested on: tumors from the tumor cell lines of Table 9; assay: Mean tumor volume in nude mice injected subcutaneously with human tumor cells; details: 30 mg/kg/day oral, 7 days
[5] = tested on: fibroblasts of tumors produced by tumor cell line of human melanoma (MEL HO); assay: Marker expression (IHC) in fibroblasts of tumor or peritumoral area, mouse model, MEL HO; format: in vivo; details: MEL HO tumors in mice, 30 mg/kg/day oral, 7 days
Method: In vitro tests conducted in Example 5 are now carried out in an experimental model in mice in vivo. […] Subsequently, the expression in fibroblasts tumoral and peritumoral area of molecular markers associated with progression and maintenance of tumors: TGF-α, TGF-β1, TGF-β2, TGF-β3, MMP-7, MMP-11, MMP-14 were analyzed by immunohistochemistry.
Were injected with 2×10^7 cells tumors (corresponding, in each case to each of the tumor types as specified in Table 9) in 200 of PBS subcutaneously μl. […] Mice were randomized into two groups when the tumors reached a volume of 75 mm^3 One group was treated with non-peptide receptor antagonists NK1 and the other with placebo 200μ1. […] Tumors and samples of non-neoplastic stromal areas remote from the tumor were halved, formalin fixed (4%) and then were included in paraffin blocks for analysis by immunohistochemistry.
The expression on fibroblast cells obtained in the animal model was analyzed by immunohistochemistry, of the above markers: TGF-α, TGF-β1, TGF-β2, TGF-β3, MMP-7, MMP-1 1, MMP-14MP-14. Tables 32 to 35 depict the type of label used and the average percentage of fibroblasts present in non-tumor areas, tumor and peritumoral (±SD) which were expressing the marker shown in each of the tumor types developed from of the different cell lines used. This process was realized in mice treated with non-peptide antagonists of NK1 receptor and in untreated animals (control).

[6] = tested on: fibroblasts (PHF) co-cultured with tumor cells in human prostate carcinoma (22Rv1); assay: Marker expression (IHC) in PHF co-cultured with 22Rv1 tumor cells; format: cell-based; details: co-culture with 22Rv1; SP 1 μM + antagonist 1 μM; 48 h;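 note: cultures grown on fresh plasma from a healthy donor, each experiment run sixfold, values give the percentage of fibroblasts positive for the given marker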
Method: as §1

[7] = tested on: fibroblasts (PHF) co-cultured with tumor cells of lung carcinoma (A-427); assay: Marker expression (IHC) in PHF co-cultured with A-427 tumor cells; format: cell-based, human; details: co-culture with A-427 lung carcinoma; SP 1 μM + antagonist 1 μM; 48 h;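 note: cultures grown in human blood plasma from a healthy donor, value is the percentage of fibroblasts positive for each marker, six replicates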
Method: as §1

## C[C@@H](O[C@H]1OCCN(Cc2n[nH]c(=O)[nH]2)[C@H]1c1ccc(F)cc1)c1cc(C(F)(F)F)cc(C(F)(F)F)c1 [Aprepitant]
[1]
  PHF cells expressing MMP-3: 0%
  PHF cells expressing MMP-7: 0%
  PHF cells expressing MMP-9: 0%
  PHF cells expressing MMP-11: 0%
  PHF cells expressing MMP-13: 0%
  PHF cells expressing MMP-14: 0%
  PHF cells expressing SPARC: 0%
  PHF cells expressing TGF-α: 0%
  PHF cells expressing TGF-β1: 0%
  PHF cells expressing TGF-β2: 0%
  PHF cells expressing TGF-β3: 0%
[2]
  PHF cells expressing MMP-3: 0%
  PHF cells expressing MMP-7: 0%
  PHF cells expressing MMP-9: 0%
  PHF cells expressing MMP-11: 0%
  PHF cells expressing MMP-13: 0%
  PHF cells expressing MMP-14: 0%
  PHF cells expressing SPARC: 0%
  PHF cells expressing TGFα: 0%
  PHF cells expressing TGFβ 1: 0%
  PHF cells expressing TGFβ 2: 0%
  PHF cells expressing TGFβ 3: 0%
[3]
  cells expressing MMP-3: 0%
  cells expressing MMP-7: 0%
  cells expressing MMP-9: 0%
  cells expressing MMP-11: 0%
  cells expressing MMP-13: 0%
  cells expressing MMP-14: 0%
  cells expressing SPARC: 0%
  cells expressing TGF-α: 0%
  cells expressing TGF-β1: 0%
  cells expressing TGF-β2: 0%
  cells expressing TGF-β3: 0%
[4]; B lymphoblastic leukemia (peripheral human B lymphoblastoid cells) SD1
  Mean tumor volume: 103 ± 8
[4]; Carcinoma of human non-small cell lung COR-L23
  Mean tumor volume: 102 ± 5
[4]; Carcinoma of human non-small cell lung H-1963
  Mean tumor volume: 98 ± 5
[4]; Carcinoma of human non-small cell lung HCC-44
  Mean tumor volume: 105 ± 7
[4]; Carcinoma of human small cell lung H-209
  Mean tumor volume: 104 ± 6
[4]; Carcinoma of human urinary bladder 5637
  Mean tumor volume: 102 ± 4
[4]; Human B lymphoma BC-1
  Mean tumor volume: 108 ± 5
[4]; Human Burkitt lymphoma CA-46
  Mean tumor volume: 109 ± 7
[4]; Human Fibrosarcoma HT-1080
  Mean tumor volume: 100 ± 4
[4]; Human Hodgkin lymphoma KM-H2
  Mean tumor volume: 101 ± 5
[4]; Human Rhabdomyosarcoma A-204
  Mean tumor volume: 102 ± 8
[4]; Human T-cell leukemia/NK YT
  Mean tumor volume: 106 ± 6
[4]; Human T-lymphoma DERL human Hodgkin 7Linfoma KM-H2
  Mean tumor volume: 105 ± 6
[4]; Human breast adenocarcinoma humano MCF-7
  Mean tumor volume: 95 ± 6
[4]; Human breast carcinoma MDA-MB-468
  Mean tumor volume: 99 ± 7
[4]; Human breast carcinoma MT-3
  Mean tumor volume: 109 ± 2
[4]; Human choriocarcinoma AC-1M32
  Mean tumor volume: 112 ± 4
[4]; Human colon carcinoma SW-403
  Mean tumor volume: 79 ± 4
[4]; Human endometrial carcinoma AN3-CA
  Mean tumor volume: 90 ± 4
[4]; Human endometrial stromal sarcoma ESS-1
  Mean tumor volume: 107 ± 4
[4]; Human folicular thyroid carcinoma TT2609-C02
  Mean tumor volume: 105 ± 7
[4]; Human gastric adenocarcinoma 23132/87
  Mean tumor volume: 77 ± 6
[4]; Human glioma GAMG
  Mean tumor volume: 108 ± 8
[4]; Human lung carcinoma A-427
  Mean tumor volume: 104 ± 4
[4]; Human lung carcinoma DV-90
  Mean tumor volume: 97 ± 3
[4]; Human lymphoblastic leukemia T BE-13
  Mean tumor volume: 102 ± 6
[4]; Human malignant fibrous histiocytoma U-2197
  Mean tumor volume: 102 ± 6
[4]; Human melanoma MEL HO
  Mean tumor volume: 104 ± 5
[4]; Human multiple myeloma COLO-677
  Mean tumor volume: 102 ± 6
[4]; Human neuroblastoma KELLY
  Mean tumor volume: 105 ± 6
[4]; Human neuroblastoma bone marrow SKN-BE 2
  Mean tumor volume: 97 ± 9
[4]; Human osteosarcoma CAL-72
  Mean tumor volume: 112 ± 4
[4]; Human ovarian adenocarcinoma EFO-27
  Mean tumor volume: 98 ± 7
[4]; Human ovarian carcinoma COLO-704
  Mean tumor volume: 101 ± 7
[4]; Human pancretic adenocarcinoma CAPAN-1
  Mean tumor volume: 86 ± 8
[4]; Human pancretic adenocarcinoma PA-TU 8902
  Mean tumor volume: 102 ± 7
[4]; Human papillary thyroid carcinoma metastasizing B-CPAP
  Mean tumor volume: 102 ± 4
[4]; Human prostate carcinoma 22RV1
  Mean tumor volume: 103 ± 5
[4]; Human retinoblastoma WERI-Rb-1
  Mean tumor volume: 99 ± 4
[4]; Human thyroid carcinoma 8505C
  Mean tumor volume: 105 ± 3
[4]; Human uterine cervix carcinoma KB
  Mean tumor volume: 103 ± 9
[4]; Melanoma humano, metástasis en ganglio linfático COLO 858
  Mean tumor volume: 109 ± 4
[4]; Sarcoma human Edwing MHH-ES-1
  Mean tumor volume: 103 ± 5
[4]; Transitional Carcinoma of human urinary bladder RT-4
  Mean tumor volume: 102 ± 6
[5]
  fibroblasts expressing MMP-7: 0%
  fibroblasts expressing MMP-11: 0%
  fibroblasts expressing MMP-14: 0%
  fibroblasts expressing TGF-α: 0%
  fibroblasts expressing TGF-β 1: 0%
  fibroblasts expressing TGF-β 2: 0%
  fibroblasts expressing TGF-β 3: 0%
[6]
  PHF cells expressing MMP-3: 0%
  PHF cells expressing MMP-7: 0%
  PHF cells expressing MMP-9: 0%
  PHF cells expressing MMP-11: 0%
  PHF cells expressing MMP-13: 0%
  PHF cells expressing MMP-14: 0%
  PHF cells expressing SPARC: 0%
  PHF cells expressing TGF-α: 0%
  PHF cells expressing TGF-β1: 0%
  PHF cells expressing TGF-β2: 0%
  PHF cells expressing TGF-β3: 0%
[7]
  PHF cells expressing MMP-3: 0%
  PHF cells expressing MMP-7: 0%
  PHF cells expressing MMP-9: 0%
  PHF cells expressing MMP-11: 0%
  PHF cells expressing MMP-13: 0%
  PHF cells expressing MMP-14: 0%
  PHF cells expressing SPARC: 0%
  PHF cells expressing TGF-α: 0%
  PHF cells expressing TGF-β1: 0%
  PHF cells expressing TGF-β2: 0%
  PHF cells expressing TGF-β3: 0%
